Measurements published in patent publication US7427488B2, “Purified and isolated platelet calcium channel nucleic acids and polypeptides and therapeutic and screening methods using same” (The University of North Carolina at Chapel Hill, priority 2000, dated 2008).

Tests used:
Format in all cases: cell-based, human
[1] = system: Annexin-V (phosphatidylserine) on platelet surface; assay: Cell surface markers of platelet activation by flow cytometry: Annexin V binding; conditions: thrombin-activated platelets
Method: (§1) Human blood was collected in acid-citrate-dextrose (ACD, 85 mM trisodium citrate, 70 mM citric acid, 111 mM dextrose). Platelet rich plasma (PRP) was prepared by centrifugation of anticoagulated blood at 25° C. for 8 minutes at 200×g. Platelets were separated from plasma via gel filtration by applying the PRP to a 2.7×10 cm SEPHAROSE™ CL4B column (Amersham Biosciences Corp., Piscataway, N.J., United States of America) equilibrated with modified Tyrode's buffer (145 mM NaCl, 4 mM KCl, 1 mM MgSO4, 6 mM glucose, 10 mM Na-HEPES). Gel filtered platelets were collected and adjusted to a concentration of about 200×10^6 platelets/ml.
(§2) Platelets were stained for cell surface activation markers according to “Flow Cytometric Analysis of Platelets”. Monoclonal Antibodies Source Book. Vol. Section 2.19 (Becton, Dickinson And Co., Franklin Lakes, N.J., United States of America). Briefly, after treatment with agonists or antagonists as above, cells were activated with 0.167 units/ml thrombin (concentration chosen based on [Ca^2+ ]i studies) for 1 minute in the presence of 1 μM CaCl2, and then stained with the combination of CD61 PerCP and Annexin V FITC, or PAC-1 FITC, CD61 PerCP, and CD62 PE for 15 minutes at room temperature in the dark. […] Cells were analyzed on a FACSCAN™ flow cytometer. Mean cell fluorescence (MCF) was compared to control platelets (thrombin only) for each experimental condition. […]

[2] = system: PAC1 (activated GPIIb/IIIa) on platelet surface; assay: Cell surface markers of platelet activation by flow cytometry: PAC1; conditions: thrombin-activated platelets
Method: as §1, §2

[3] = system: platelet VDCC (thrombin-activated platelets); assay: Flow cytometric analysis of [Ca2+]i in thrombin-activated platelets; conditions: for effect on [Ca2+]i (in words): thrombin-activated platelets
Method: The conduction of calcium by the VDCC is measured in vitro by measuring changes in cytoplasmic free (ionized) calcium concentrations. Cytoplasmic calcium concentrations are measured by performing flow cytometric analysis with the calcium indicators fluo-3 and fura red as detailed by Novak & Rabinovitch, 1994. Briefly, platelets in whole blood, platelet rich plasma or biological buffers are incubated with esters of fluo-3 and fura red, and then aspirated into the flow cytometric instrument for measurement of calcium-dependent fluorescent changes. Cytoplasmic calcium concentrations are calculated from the ratio or fluo-3 and fura red relative fluorescence intensities. Experiments are performed with increasing doses of VDCC inhibitors with platelets that are in the resting state and subjected to different concentrations of activation agonists and VDCC antagonists and agonists.
as §1
PRP (prepared as above) was incubated with 5 μM Fura 2-AM and 5 μM Fluo 3-AM for 20 minutes at 37° C. […] Thrombin was then added to a final concentration of 0.0167, 0.05, 0.167 or 0.5 units/ml and mean cell fluorescence (MCF) of Fura 2 and Fluo 3 was measured at 1 minute on a FACSCAN™ (BD Biosciences, San Jose, Calif., United States of America) flow cytometer as per Novak & Rabinovitch, 1994. The ratio of fluo 3 to fura 2 MCF was calculated and compared to controls for each experimental condition.

[4] = system: CD62 (PADGEM; P-selectin) on platelet surface; assay: Cell surface markers of platelet activation by flow cytometry: CD62; conditions: thrombin-activated platelets
Method: as §1, §2

[5] = system: platelet surface activation markers; assay: Cell surface markers of platelet activation, overall statement; conditions: Annexin V, PAC1, CD62
Method: as §1, §2

[6] = system: gel-filtered platelets; assay: Platelet aggregation (Chrono-log aggregometer); conditions: 50 nM nitrendipine or 5 μM Bay K(+); various concentrations of thrombin
Method: as §1
Gel-filtered platelets at about 200×10^6/ml were incubated for 2 hours with 1:200 MA3-920, 50 nM nitrendipine, 5 μM Bay K(−), or 5 μM Bay K(+). […] Results were analyzed with the AGGROLINK® software (Chrono-log Corp.).

| Structure (SMILES) | increase in annexin V binding [1] | decrease in PAC1 [2] | [Ca2+]i ([3]; 5 μM, at one minute, thrombin 0.0167 to 0.5 units/ml (FIG. 8)) | effect on [Ca2+]i (in words) [3] | decrease in CD62 [4] | effect on platelet surface activation markers (in words) [5] | effect on (the rate of) platelet aggregation (in words) [6] | reduction (decrease) in annexin V binding / PS exposure [1] |
| --- | --- | --- | --- | --- | --- | --- | --- | --- |
| COC(=O)C1=C(C)NC(C)=C([N+](=O)[O-])[C@H]1c1ccccc1C(F)(F)F [Bay K (−)] | 56% | 9% | increase | trend towards increased | 4% |  |  |  |
| COC(=O)C1=C(C)NC(C)=C([N+](=O)[O-])[C@@H]1c1ccccc1C(F)(F)F [Bay K (+)] |  |  |  | no significant effect |  | no significant effect | no significant effect |  |
| CCOC(=O)C1=C(C)NC(C)=C(C(=O)OC)C1c1cccc([N+](=O)[O-])c1 (stereo not shown) [Nitrendipine, nitrendipine] |  |  |  |  |  |  | no effect | 22% |
